PubChem BioAssay AID256 (DTP/NCI, 2004)
Several values for one entry are separate records, joined by “and”; a condition that tells them apart may be missing. Equal entries are not always repeated. Inconclusive results and toxic doses are left out. The calls were made as follows: active = survival T/C of 150% or more; inactive = T/C below 125% in these data.

System: CD2F1 mice, L1210 leukemia ip, survival T/C
Assay: NCI In Vivo Anticancer Drug Screen. Data for tumor model L1210 Leukemia (intraperitoneal) in CD2F1 (CDF1) mice
Details: endpoint: mean survival time, higher = longer survival
Procedure, shortened: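 Implant tumor; dose compound or vehicle; measure endpoint in both groups; report treated divided by control.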

[1] = dose: 100.0 mg/kg/injection, schedule: Q01DX009 (ip), vehicle: saline with Tween-80
[2] = dose: 200.0 mg/kg/injection, schedule: Q01DX009 (ip), vehicle: saline with Tween-80
[3] = dose: 400.0 mg/kg/injection, schedule: Q01DX009 (ip), vehicle: saline with Tween-80
[4] = dose: 100.0 mg/kg/injection, schedule: Q04DX003 (ip), vehicle: saline
[5] = dose: 200.0 mg/kg/injection, schedule: Q04DX003 (ip), vehicle: saline
[6] = dose: 50.0 mg/kg/injection, schedule: Q01DX009 (ip), vehicle: saline with Tween-80
[7] = dose: 50.0 mg/kg/injection, schedule: Q04DX002 (ip), vehicle: saline with Tween-80
[8] = dose: 100.0 mg/kg/injection, schedule: Q04DX002 (ip), vehicle: saline with Tween-80
[9] = dose: 200.0 mg/kg/injection, schedule: Q04DX002 (ip), vehicle: saline with Tween-80
[10] = dose: 400.0 mg/kg/injection, schedule: Q04DX002 (ip), vehicle: saline with Tween-80
[11] = dose: 100.0 mg/kg/injection, schedule: Q04DX003 (ip), vehicle: saline with Tween-80
[12] = dose: 200.0 mg/kg/injection, schedule: Q04DX003 (ip), vehicle: saline with Tween-80
[13] = dose: 400.0 mg/kg/injection, schedule: Q04DX003 (ip), vehicle: saline with Tween-80
[14] = dose: 100.0 mg/kg/injection, schedule: Q01DX001 (ip), vehicle: saline
[15] = dose: 200.0 mg/kg/injection, schedule: Q01DX001 (ip), vehicle: saline

Measured: T/C

CSc1ncnc2cn(C3OC(CO)C(O)C3O)nc12 (stereo unspecified)
inactive: dose: 6.25 mg/kg/injection, schedule: Q01DX005 (ip), vehicle: water 96 % of control | dose: 12.5 mg/kg/injection, schedule: Q01DX005 (ip), vehicle: water 100 % of control | dose: 25.0 mg/kg/injection, schedule: Q01DX005 (ip), vehicle: water 114 % of control | dose: 50.0 mg/kg/injection, schedule: Q01DX005 (ip), vehicle: water 92 % of control | dose: 100.0 mg/kg/injection, schedule: Q01DX005 (ip), vehicle: water 100 % of control | dose: 200.0 mg/kg/injection, schedule: Q01DX005 (ip), vehicle: water 86 % of control

C=C(C)c1c2ccccc2cc2cccc(Sc3ccccc3)c12
inactive: [1] 95 % of control | [2] 93 % of control | [3] 95 % of control

CC(C)(C)OCC(N)C(=O)OC(C)(C)C (stereo unspecified)
inactive: [4] 93 % of control | [5] 103 % of control | dose: 400.0 mg/kg/injection, schedule: Q04DX003 (ip), vehicle: saline 96 % of control

O=C(CCl)Nc1nccs1
inactive: dose: 12.5 mg/kg/injection, schedule: Q01DX009 (ip), vehicle: saline with Tween-80 100 % of control | dose: 25.0 mg/kg/injection, schedule: Q01DX009 (ip), vehicle: saline with Tween-80 95 % of control | [6] 97 % of control | [1] 92 % of control

O=C(O)CCc1ccccc1-c1ccccc1
inactive: [7] 105 % of control | [8] 96 % of control and 97 % of control | [9] 103 % of control and 105 % of control | [10] 100 % of control

CCCCCCCCCCSS(=O)(=O)O
inactive: dose: 25.0 mg/kg/injection, schedule: Q01DX001 (ip), vehicle: other 105 % of control | dose: 50.0 mg/kg/injection, schedule: Q01DX001 (ip), vehicle: other 96 % of control | dose: 100.0 mg/kg/injection, schedule: Q01DX001 (ip), vehicle: other 96 % of control

O=NN(Cc1cccnc1)Cc1cccnc1
inactive: dose: 75.0 mg/kg/injection, schedule: Q01DX001 (ip), vehicle: water 102 % of control | dose: 150.0 mg/kg/injection, schedule: Q01DX001 (ip), vehicle: water 102 % of control

COc1nc(Cl)nc(Cl)c1Cl (tested in a mixture with another compound)
inactive: dose: 12.5 mg/kg/injection, schedule: Q01DX009 (ip), vehicle: other 93 % of control | dose: 25.0 mg/kg/injection, schedule: Q01DX009 (ip), vehicle: other 93 % of control | dose: 50.0 mg/kg/injection, schedule: Q01DX009 (ip), vehicle: other 104 % of control

Cc1cc2c(-c3ccccc3)c(-c3ccccc3)oc(=O)c2cc1C
inactive: [11] 95 % of control | [12] 90 % of control | [13] 92 % of control

O=C1OC(c2ccc([N+](=O)[O-])cc2)=N/C1=C\c1ccc2c(c1)OCO2
inactive: dose: 25.0 mg/kg/injection, schedule: Q04DX002 (ip), vehicle: saline with Tween-80 95 % of control | [7] 98 % of control | [8] 91 % of control

NC(=O)COc1ccc(F)cc1
inactive: [8] 97 % of control | [9] 90 % of control | [10] 101 % of control

C=CC/C(C)=C/C=C/C(C)C(=O)O (stereo unspecified)
inactive: [1] 100 % of control | [11] 98 % of control | [2] 94 % of control | [12] 93 % of control | [3] 104 % of control | [13] 95 % of control

O=S(=O)(Cl)c1ccc2cc3ccccc3cc2c1
inactive: dose: 50.0 mg/kg/injection, schedule: Q04DX003 (ip), vehicle: saline 96 % of control | [14] 94 % of control | [4] 96 % of control | [15] 101 % of control | [5] 102 % of control

O=C(CNC(=O)Nc1cccc(C(F)(F)F)c1)N/N=C/c1ccco1
inactive: [6] 92 % of control | [1] 92 % of control | [2] 88 % of control

O=C(CCCCCCCCC(=O)N/N=C/c1ccc(Cl)c(Cl)c1)N/N=C/c1ccc(Cl)c(Cl)c1
inactive: dose: 100.0 mg/kg/injection, schedule: Q01DX001 (ip), vehicle: saline with Tween-80 95 % of control | dose: 200.0 mg/kg/injection, schedule: Q01DX001 (ip), vehicle: saline with Tween-80 95 % of control | dose: 400.0 mg/kg/injection, schedule: Q01DX001 (ip), vehicle: saline with Tween-80 94 % of control

N#C/C(=C\c1cccc2ccccc12)c1ccccc1
inactive: [1] 100 % of control | [11] 93 % of control | [2] 96 % of control | [12] 98 % of control | [3] 97 % of control | [13] 102 % of control

CN(C)C1CCc2ccc3ccccc3c2C1=O (stereo unspecified)
inactive: dose: 12.5 mg/kg/injection, schedule: Q01DX009 (ip), vehicle: saline 105 % of control | dose: 25.0 mg/kg/injection, schedule: Q01DX009 (ip), vehicle: saline 102 % of control | dose: 50.0 mg/kg/injection, schedule: Q01DX009 (ip), vehicle: saline 105 % of control

COc1ccc(CCNC2c3ccccc3C=Cc3ccccc32)cc1OC
inactive: dose: 50.0 mg/kg/injection, schedule: Q01DX001 (ip), vehicle: saline with Tween-80 107 % of control | [14] 91 % of control | [15] 100 % of control
